Values joined by “and” are separate entries in the source; they are usually repeats but may differ in a detail not shown here. Identical values can stand only once.
Test system: RPMI-8226 cells
Assay: Gene expression profiling, NanoString nCounter PanCancer Pathways Panel, ROSALIND analysis
Assay type: cell-based, human
Conditions: RPMI-8226, TCH-165 samples 1-3
Protocol: RPMI-8226 cells were treated with vehicle or TCH-165 (10 μM) for 4 h. Total RNA was obtained using the mirVana miRNA Isolation Kit, with phenol (Thermofisher Scientific; AM1560; Waltham, MA, USA). Total RNA was quantified by Qubit (Thermofisher Scientific; Q32855; Waltham, MA, USA). and gene expression was evaluated against the nCounter® PanCancer Pathways Panel^TM according to the standard NanoString protocol.
Data were analyzed by ROSALIND® [36] with a hyperscale architecture developed by ROSALIND, Inc. (San Diego, CA, USA). Normalization, fold changes and p-values were calculated using criteria provided by NanoString. ROSALIND follows the nCounter® Advanced Analysis protocol of dividing counts within a lane by the geometric mean of the normalizer probes from the same lane. Housekeeping probes to be used for normalization are selected based on the geNorm algorithm, as implemented in the NormqPCR R library. Fold changes and p-values are calculated using the fast method as described in the nCounter Advanced Analysis 2.0 User Manual. The p-value adjustment is performed using the Benjamini–Hochberg method of estimating false discovery rates (FDR). Clustering of genes for the final heatmap of differentially expressed genes was done using the PAM (Partitioning Around Medoids) method using the fpc R library. Hypergeometric distribution was used to analyze the enrichment of pathways, gene ontology, domain structure and other ontologies. The topGO R library was used to determine local similarities and dependencies between GO terms in order to perform Elim pruning correction. Several database sources were referenced for enrichment analysis, including Interpro [40], NCBI [41], MSigDB [42, 43], REACTOME [44], WikiPathways. Enrichment was calculated relative to a set of background genes relevant to the experiment.

CCOC(=O)[C@]1(c2ccccc2)N=C(c2ccc(OC)cc2)N(Cc2ccccc2)[C@@H]1c1ccc(NCc2ccccc2)cc1 [TCH-165]
PDGFA normalized gene expression: 6.283 and 6.012 and 6.0068 | PDGFB normalized gene expression: 4.649 and 4.855 and 4.437 | PDGFRA normalized gene expression: 4.401 and 4.3768 and 3.876 | PDGFRB normalized gene expression: 4.86 and 4.614 and 4.483 | PGF normalized gene expression: 5.308 and 4.817 and 4.238 | PIK3CA normalized gene expression: 10.0553 and 10.0309 and 10.0578 | PIK3CB normalized gene expression: 6.955 and 6.836 and 6.778 | PIK3CD normalized gene expression: 5.445 and 5.636 and 4.975 | PIK3CG normalized gene expression: 8.477 and 8.424 and 8.357 | PIK3R1 normalized gene expression: 7.74 and 7.729 and 7.668 | PIK3R3 normalized gene expression: 10.4707 and 10.3784 and 10.3886 | PIK3R5 normalized gene expression: 8.581 and 8.361 and 8.483 | PIM1 normalized gene expression: 9.677 and 9.621 and 9.503 | PITX2 normalized gene expression: 3.723 and 3.817 and 3.39 | PKMYT1 normalized gene expression: 9.448 and 9.494 and 9.482 | PLA1A normalized gene expression: 4.571 and 4.7789 and 4.5707 | PLA2G2A normalized gene expression: 5.723 and 5.0613 and 5.549 | PLA2G3 normalized gene expression: 5.955 and 5.7789 and 5.549 | PLA2G4A normalized gene expression: 9.821 and 9.8479 and 9.947 | PLA2G4C normalized gene expression: 3.986 and 4.324 and 4.0682 | PLA2G5 normalized gene expression: 4.208 and 4.855 and 5.0068 | PLA2G10 normalized gene expression: 4.793 and 4.569 and 4.9095 | PLAT normalized gene expression: 5.101 and 4.855 and 4.805 | PLAU normalized gene expression: 5.758 and 5.452 and 5.461 | PLCB1 normalized gene expression: 7.331 and 7.169 and 7.1906 | PLCB4 normalized gene expression: 8.221 and 8.1619 and 8.141 | PLCE1 normalized gene expression: 3.571 and 3.962 and 3.291 | PLCG2 normalized gene expression: 7.802 and 7.657 and 7.688 | PLD1 normalized gene expression: 4.723 and 4.524 and 4.0068 | PML normalized gene expression: 9.305 and 9.103 and 9.111 | POLB normalized gene expression: 8.277 and 8.166 and 8.094 | POLD1 normalized gene expression: 6.955 and 6.97 and 7.225 | POLE2 normalized gene expression: 7.876 and 7.784 and 7.712 | POLR2D normalized gene expression: 10.3534 and 10.1749 and 10.2456 | POLR2H normalized gene expression: 9.625 and 9.653 and 9.593 | POLR2J normalized gene expression: 8.023 and 8.1988 and 7.922 | PPARG normalized gene expression: 5.308 and 4.093 and 4.841 | PPARGC1A normalized gene expression: 5.156 and 4.855 and 4.5707 | PPP2CB normalized gene expression: 9.355 and 9.581 and 9.539 | PPP2R1A normalized gene expression: 10.9153 and 10.8543 and 10.8588 | PPP2R2B normalized gene expression: 5.208 and 3.891 and 3.876 | PPP2R2C normalized gene expression: 4.401 and 4.154 and 4.653 | PPP3CA normalized gene expression: 8.9359 and 8.866 and 8.858 | PPP3CB normalized gene expression: 6.793 and 6.5 and 6.673 | PPP3CC normalized gene expression: 7.784 and 7.44 and 7.5547 | PPP3R1 normalized gene expression: 12.1844 and 12.0743 and 12.0585 | PRDM1 normalized gene expression: 9.955 and 9.965 and 9.796 | PRKAA2 normalized gene expression: 5.445 and 4.927 and 5.238 | PRKACA normalized gene expression: 10.3765 and 10.3832 and 10.3727 | PRKACB normalized gene expression: 9.149 and 8.936 and 8.955 | PRKACG normalized gene expression: 5.955 and 4.996 and 4.975 | PRKAR1B normalized gene expression: 7.319 and 7.093 and 7.231 | PRKAR2A normalized gene expression: 10.8995 and 10.8368 and 10.7359 | PRKAR2B normalized gene expression: 4.924 and 5.5 and 5.291 | PRKCA normalized gene expression: 5.61 and 5.739 and 5.858 | PRKCB normalized gene expression: 5.101 and 5.5 and 5.1271 | PRKCG normalized gene expression: 3.208 and 3.154 and 2.805 | PRKDC normalized gene expression: 10.6509 and 10.6549 and 10.5707 | PRKX normalized gene expression: 6.924 and 6.699 and 6.769 | PRL normalized gene expression: 5.156 and 4.7789 and 4.483 | PRLR normalized gene expression: 4.401 and 4.324 and 4.483 | PROM1 normalized gene expression: 5.488 and 4.817 and 5.1271 | PTCH1 normalized gene expression: 6.423 and 6.1393 and 6.303 | PTEN normalized gene expression: 10.0245 and 10.0523 and 10.0068 | PTPN11 normalized gene expression: 10.4091 and 10.3872 and 10.2825 | PTPRR normalized gene expression: 5.156 and 5.27 and 4.876 | PTTG2 normalized gene expression: 10.7067 and 10.7173 and 10.7103 | RAC1 normalized gene expression: 10.809 and 10.6987 and 10.6841 | RAC2 normalized gene expression: 9.175 and 9.2187 and 9.226 | RAC3 normalized gene expression: 7.412 and 7.085 and 7.42 | RAD21 normalized gene expression: 12.3086 and 12.2658 and 12.2586 | RAD50 normalized gene expression: 8.5605 and 8.589 and 8.653 | RAD51 normalized gene expression: 8.142 and 8.041 and 8.102 | RAD52 normalized gene expression: 7.767 and 7.625 and 7.698 | RAF1 normalized gene expression: 10.0005 and 9.906 and 9.965 | RASA4 normalized gene expression: 8.175 and 8.284 (2×) | RASAL1 normalized gene expression: 7.884 and 7.864 and 8.034 | RASGRF1 normalized gene expression: 5.355 and 5.27 and 5.1271 | RASGRF2 normalized gene expression: 4.401 and 4.154 and 4.39 | RASGRP1 normalized gene expression: 3.571 and 3.27 and 2.805 | RASGRP2 normalized gene expression: 5.355 and 4.7789 and 5.184 | RB1 normalized gene expression: 10.4258 and 10.2516 and 10.3605 | RBX1 normalized gene expression: 11.212 and 11.2858 and 11.2821 | RELA normalized gene expression: 9.023 and 9.033 and 8.932 | RELN normalized gene expression: 3.208 and 3.154 and 2.653 | RET normalized gene expression: 4.488 and 3.154 and 4.1271 | RFC3 normalized gene expression: 10.5818 and 10.4756 and 10.5331 | RFC4 normalized gene expression: 10.5805 and 10.6642 and 10.6099 | RHOA normalized gene expression: 10.324 and 10.1814 and 10.1759 | RIN1 normalized gene expression: 5.308 and 5.324 and 5.211 | RNF43 normalized gene expression: 5.044 and 4.569 and 4.528

— publication PMC9138505, “Small Molecule 20S Proteasome Enhancer Regulates MYC Protein Stability and Exhibits Antitumor Activity in Multiple Myeloma” (Biomedicines, 2022)
